The target of experiment [1] is HEK-293 cells expressing human recombinant adenosine A2A receptor (Homo sapiens (Human), UniProt P29274). Nature of the experiment: cAMP assay, Assay 2 (Eu-cAMP tracer / ULight-anti-cAMP). The class given is cell-based. The procedure:
The functional activity of compounds was tested using one of the two assays to detect the present of cAMP. Activation of G-protein coupled receptors (such as A2A) results in activation of adenylcyclase which converts ATP into cAMP which is used as a downstream signaling molecule. Therefore, molecules which act as GPCR (or specifically A2A receptor) antagonists cause a decrease in intracellular cAMP concentration.
Both assays used HEK-293 cells expressing human recombinant adenosine A2A receptor were grown prior to the test in media without antibiotic.
Assay 2 (Table B2-2): 100 nL of test articles at 100× of final concentration were transferred to assay plate by Echo. Cells were washed twice with 5 mL of PBS […]. After aspirating the PBS and adding 1.5 mL versine, cells were incubated at 37° C. for 2-5 min. After centrifugation, 4 mL of medium was added and adjusted cell density to 5,000 cells/well with Stimulation Buffer. 10 μL of cells were aliquoted to the assay plate, centrifuged at 1000 rpm for 1 minute, and incubated for 60 minutes at room temperature. 5 μL 4×Eu-cAMP tracer solution and 5 μL 4×Ulight™-anti-cAMP solution were added to assay plate, followed by centrifugation and 60-minute incubation at room temperature. Plates were read on EnVision.
(Changes in cAMP serve as a functional read-out for many G protein-coupled receptors.)

In experiment [2] the target is human adenosine A2A membrane preparation (Homo sapiens (Human), UniProt P29274). In words: Adenosine A2A receptor radioligand binding assay (SPA beads, 3H-SCH 58261, 384 plate). As to conditions: for pIC50: Table B1-2; for inhibition at 3 µM: read-out: A2a binding % inh @ 3000 nM. The procedure:
For the A2A adenosine receptor radioligand binding assay, the following modifications were made to the general protocol. GF/C filters (Perkin Elmer, 6005174), presoaked in 0.01% Brij for 2 h at room temperature were used. Filters were washed six times with 0.5 mL of ice-cold washing buffer (50 mM Tris pH 7.4) and 50 μL of Microscint 20 (Packard) was added in each well. The plates were then incubated for 15 min on an orbital shaker and then counted with a TopCount™ for 1 min/well. Another radioligand binding assay was used to evaluate the binding affinity for the adenosine A2A receptor assay was performed in duplicate in the wells of a 384 plate. Assay buffer contained DPBS 500 mM, MgCl2 0.1 mM, and 1% DMSO. Membrane-bead suspension was prepared by mixing 25.98 μL of human adenosine A2A membrane preparation (Perkin Elmer, RBHA2AM400UA) at 33.4 μg/mL, 28 μL of ADA at 20 μg/mL, and 932 μL of SPA beads at 3.33 mg/mL) and incubated the mixture for 20 min at room temperature. Mixed 20 μL of radiotracer (^3H-SCH 58261) at 15 nM to each well containing test articles at various concentrations and centrifuge the plate at 1000 rpm for 1 minute. Added 30 μL of the membraine-bead suspension to each well. Sealed the plates and incubated for 1 hr at room temperature with vigorous mixing on a plate mixer. Plates were read on Microbeta^2 (Perkin Elmer, 2450-0010).

Setting [3] is: HEK293, read-out: A2a cAMP % inh @ 100 nM.
Where [4] appears, read: HEK293, 100 nM, Assay 2, read-out: A2a cAMP % inh @ 100 nM.

pIC50: −log10 of the molar value. Where two headings read alike, the source gives them in different places. A value given as a limit tells only on which side of the number the result lay.

Sequence of human adenosine A2A membrane preparation (P29274 whole entry): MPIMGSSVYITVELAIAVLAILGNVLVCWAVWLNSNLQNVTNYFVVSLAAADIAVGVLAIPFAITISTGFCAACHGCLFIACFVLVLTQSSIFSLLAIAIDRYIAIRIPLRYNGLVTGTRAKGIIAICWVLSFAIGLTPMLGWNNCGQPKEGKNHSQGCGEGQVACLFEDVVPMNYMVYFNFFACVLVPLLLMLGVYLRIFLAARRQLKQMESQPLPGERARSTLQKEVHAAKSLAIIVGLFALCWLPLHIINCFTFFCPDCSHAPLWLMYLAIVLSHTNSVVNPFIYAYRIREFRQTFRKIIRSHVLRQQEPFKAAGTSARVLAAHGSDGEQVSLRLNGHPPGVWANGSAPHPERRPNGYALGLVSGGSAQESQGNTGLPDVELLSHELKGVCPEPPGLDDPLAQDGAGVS
Sequence of HEK-293 cells expressing human recombinant adenosine A2A receptor (P29274 whole entry): as above

On to `Cc1ccn(-c2nc(N)cnc2-c2cc(Cl)c3[nH]ncc3c2)n1` [Compound 1.295, 5-(7-chloro-1H-indazol-5-yl)-6-(3-methyl-1H-pyrazol-1-yl)pyrazin-2-amine], for which the pIC50 – broadly, the negative decadic logarithm of the IC50, by convention in mol/L – in experiment [1] (Assay 2) is 7.48; in experiment [2], 8.26.

For the compound `Cn1ccc(-c2nc(N)cnc2-c2cc(Cl)c3ncccc3c2)n1` [Compound 1.297, 5-(8-chloroquinolin-6-yl)-6-(1-methyl-1H-pyrazol-3-yl)pyrazin-2-amine], the pIC50 is 7.32 in experiment [1] (Assay 2) and 7.77 in experiment [2].

For `Cn1ccc(-c2nc(N)cnc2-c2cc(Cl)c3[nH]ncc3c2)n1` [Compound 1.304, 5-(7-chloro-1H-indazol-5-yl)-6-(1-methyl-1H-pyrazol-3-yl)pyrazin-2-amine], the values for the pIC50 in experiment [1] (Assay 2) and in experiment [2] were 7.40 and 8.05, respectively.

As for `Nc1cnc(-c2cc(Cl)c3ncccc3c2)c(-n2ccccc2=O)n1` [Compound 1.308, 1-(6-amino-3-(8-chloroquinolin-6-yl)pyrazin-2-yl)pyridin-2(1H)-one], the pIC50 in experiment [1] (Assay 2) and in experiment [2] was less than 5.00 each time.

Consider `Cn1ccc(-c2nc(N)c(C#N)nc2-c2cc(Cl)c3ncccc3c2)n1` [Compound 1.309, 3-amino-6-(8-chloroquinolin-6-yl)-5-(1-methyl-1H-pyrazol-3-yl)pyrazine-2-carbonitrile], for which the results for the pIC50 in experiment [1] (Assay 2) and in experiment [2] were 7.88 and 8.80, respectively.

In the case of `Cn1ccc(-c2nc(N)cnc2-c2ccc3c(=O)[nH]ccc3c2)n1` [Compound 1.315, 6-(5-amino-3-(1-methyl-1H-pyrazol-3-yl)pyrazin-2-yl)isoquinolin-1-ol], the results for the pIC50 in experiment [1] (Assay 2) and in experiment [2] were 5.85 and 7.00, respectively.

Regarding `Cc1ncc(-c2nc(N)cnc2-c2cc(Cl)c3ncccc3c2)s1` [Compound 1.318, 5-(8-chloroquinolin-6-yl)-6-(2-methylthiazol-5-yl)pyrazin-2-amine], the pIC50 in experiment [1] (Assay 2) was 6.70; in experiment [2], 8.03.

For the compound `Cn1cccc(-c2nc(N)cnc2-c2cc(Cl)c3ncccc3c2)c1=O` [Compound 1.329, 3-(6-amino-3-(8-chloroquinolin-6-yl)pyrazin-2-yl)-1-methylpyridin-2(1H)-one], the pIC50 in experiment [1] (Assay 2) was less than 5.00.

Consider `Cn1ccc(-c2nc(N)cnc2-c2ccc3[nH]c(=O)ccc3c2)n1` [Compound 1.353, 6-(5-amino-3-(1-methyl-1H-pyrazol-3-yl)pyrazin-2-yl)quinolin-2(1H)-one], for which the pIC50 in experiment [1] (Assay 2) was less than 5.00.

For `Cc1cnc(-c2nc(N)cnc2-c2cc(Cl)c3ncccc3c2)s1` [Compound 1.395, 5-(8-chloroquinolin-6-yl)-6-(5-methylthiazol-2-yl)pyrazin-2-amine], in experiment [1] (Assay 2), the pIC50 was 6.25.

For the compound `Nc1cnc(-c2ccc3ncccc3c2)c(-c2ccccn2)n1` [Compound No. 1.25, 6-(pyridin-2-yl)-5-(quinolin-6-yl)pyrazin-2-amine], the inhibition at 0.1 µM in experiment [1] (setting [3]) was 6%. Moreover, in experiment [2], the inhibition at 3 µM was determined as 48%.

On to `Nc1cnc(-c2ccc3ncoc3c2)c(-c2ccccc2)n1` [Compound No. 1.35, 5-(benzo[d]oxazol-6-yl)-6-phenylpyrazin-2-amine], for which, in experiment [1] (setting [4]), the inhibition at 0.1 µM is 22%. Further, the inhibition at 3 µM in experiment [2] is 64%.

On to `Nc1cnc(-c2ccc3ncsc3c2)c(-c2ccccc2)n1` [Compound No. 1.36, 5-(benzo[d]thiazol-6-yl)-6-phenylpyrazin-2-amine], for which the inhibition at 0.1 µM in experiment [1] (setting [4]) was found to be 77%. In experiment [2], the inhibition at 3 µM came to 81%.

As to `Cc1ccc(-c2nc(N)cnc2-c2cc(Cl)c3[nH]cnc3c2)o1` [Compound No. 1.45, 5-(7-chloro-1H-benzimidazol-5-yl)-6-(5-methylfuran-2-yl)pyrazin-2-amine], the inhibition at 0.1 µM in experiment [1] (setting [3]) was found to be 100%. Besides, the inhibition at 3 µM in experiment [2] was 91%.

On to `Nc1cnc(-c2ccc3ccccc3c2)c(-c2ccccc2)n1` [Compound No. 1.185, 5-(naphthalen-2-yl)-6-phenylpyrazin-2-amine], for which the inhibition at 0.1 µM in experiment [1] (setting [4]) was determined as 9%. In addition, the inhibition at 3 µM in experiment [2] was found to be 20%.

For `Nc1cnc(-c2ccc3c(c2)CCCN3)c(-c2ccccc2)n1` [Compound No. 1.186, 6-phenyl-5-(1,2,3,4-tetrahydroquinolin-6-yl)pyrazin-2-amine], in experiment [1] (setting [4]), the inhibition at 0.1 µM was found to be 12%. The inhibition at 3 µM in experiment [2] was 30%.

Take `N#Cc1nc(-c2ccc3ncsc3c2)c(-c2ccccc2)nc1N` [Compound No. 1.192, 3-amino-6-(benzo[d]thiazol-6-yl)-5-phenylpyrazine-2-carbonitrile]: in experiment [1] (setting [4]), the inhibition at 0.1 µM was found to be 93%. For the same compound, the inhibition at 3 µM in experiment [2] was 89%.

As for `N#Cc1nc(-c2ccc3ncoc3c2)c(-c2ccccc2)nc1N` [Compound No. 1.193, 3-amino-6-(benzo[d]oxazol-6-yl)-5-phenylpyrazine-2-carbonitrile], in experiment [1] (setting [4]), the inhibition at 0.1 µM is 87%. Further, the inhibition at 3 µM in experiment [2] was 83%.

On to `Cc1ccc(-c2nc(N)cnc2-c2ccc3ncccc3c2)s1` [Compound No. 1.210, 6-(5-methylthiophen-2-yl)-5-(quinolin-6-yl)pyrazin-2-amine], for which the inhibition at 0.1 µM in experiment [1] (setting [4]) turned out to be 100%. Moreover, in experiment [2], the inhibition at 3 µM is 100%.

As to `Nc1nc(-c2ccccc2)c(-c2ccc3ncccc3c2)nc1C(=O)O` [Compound No. 1.238, 3-amino-5-phenyl-6-(quinolin-6-yl) pyrazine-2-carboxylic acid], the inhibition at 0.1 µM in experiment [1] (setting [4]) was determined as 7%. For the same compound, the inhibition at 3 µM in experiment [2] was determined as 11%.

Regarding `Nc1nc(-c2ccccc2)c(-c2ccc3ncccc3c2)nc1O` [Compound No. 1.241, 3-amino-5-phenyl-6-(quinolin-6-yl)pyrazin-2-ol], the inhibition at 0.1 µM in experiment [1] (setting [4]) came out at 80%. In experiment [2], the inhibition at 3 µM worked out at 86%.

For `Nc1cnc(-c2ccc3[nH]ncc3c2)c(-c2ccccc2)n1` [Compound No. 1.270, 5-(1H-indazol-5-yl)-6-phenylpyrazin-2-amine], in experiment [1] (setting [4]), the inhibition at 0.1 µM worked out at 100%. The inhibition at 3 µM in experiment [2] is 100%.

For `Cc1ccn(-c2nc(N)cnc2-c2cc(Cl)c3ncccc3c2)n1` [Compound No. 1.271, 5-(8-chloroquinolin-6-yl)-6-(3-methyl-1H-pyrazol-1-yl)pyrazin-2-amine], the pIC50 in experiment [1] (Assay 2) was 7.30; in experiment [2] it was 8.68.

Turning to `NC(=O)c1nc(-c2ccc3ncccc3c2)c(-c2ccccc2)nc1N` [Compound No. 1.272, 3-amino-5-phenyl-6-(quinolin-6-yl)pyrazine-2-carboxamide], the inhibition at 0.1 µM in experiment [1] (setting [4]) came out at 96%. Further, the inhibition at 3 µM in experiment [2] was 80%.

For the compound `Cc1cccc(CNC(=O)c2nc(-c3ccc4ncccc4c3)c(-c3ccccc3)nc2N)n1` [Compound No. 1.273, 3-amino-N-((6-methylpyridin-2-yl)methyl)-5-phenyl-6-(quinolin-6-yl)pyrazine-2-carboxamide], the pIC50 in experiment [1] (Assay 2) is 7.92. Also, the inhibition at 3 µM in experiment [2] came to 100%.

Turning to `N#Cc1nc(-c2ccc3[nH]ncc3c2)c(-c2ccccc2)nc1N` [Compound No. 1.274, 3-amino-6-(1H-indazol-5-yl)-5-phenylpyrazine-2-carbonitrile], in experiment [1] (setting [4]), the inhibition at 0.1 µM stood at 60%. In addition, the inhibition at 3 µM in experiment [2] was 80%.

Take `Nc1nc(-c2ccccc2)c(-c2ccc3ncccc3c2)nc1N1CCOCC1` [Compound No. 1.275, 3-morpholino-6-phenyl-5-(quinolin-6-yl)pyrazin-2-amine]: the inhibition at 0.1 µM in experiment [1] (setting [4]) was found to be 0%. Also, the inhibition at 3 µM in experiment [2] was 11%.

For `CN1CCN(c2nc(-c3ccc4ncccc4c3)c(-c3ccccc3)nc2N)CC1` [Compound No. 1.276], the inhibition at 0.1 µM in experiment [1] (setting [4]) came out at 0%. Moreover, in experiment [2], the inhibition at 3 µM came out at 24%.

`N#Cc1nc(-c2cc(Cl)c3[nH]cnc3c2)c(-c2ccccc2)nc1N` [Compound No. 1.277, 3-amino-6-(7-chloro-1H-benzimidazol-5-yl)-5-phenylpyrazine-2-carbonitrile]: the inhibition at 0.1 µM in experiment [1] (setting [4]) was determined as 44%. The inhibition at 3 µM in experiment [2] turned out to be 83%.

Consider `Nc1cnc(-c2cc(Cl)c3ncccc3c2)c(-c2cc3ccccc3o2)n1` [Compound No. 1.278], for which the pIC50 in experiment [1] (Assay 2) was 6.52. For the same compound, the inhibition at 3 µM in experiment [2] amounted to 95%.

With `Nc1cnc(-c2ccc3ncccc3c2)c(-c2nccs2)n1` [Compound No. 1.279, 5-(quinolin-6-yl)-6-(1,3-thiazol-2-yl)pyrazin-2-amine], in experiment [1] (setting [4]), the inhibition at 0.1 µM stood at 9%. In experiment [2], the inhibition at 3 µM worked out at 58%.

Values taken from patent publication US11028058B2, “Heterocyclic compounds as adenosine antagonists” (NUVATION BIO INC., priority 2017, dated 2021).
